Data taken from patent US20040106143A1, “Monoclonal antibody against estrogen stimulated leucine aminopeptidase” (priority 2000, published 2004).

Key:
[1] = test system: es-LAPase; assay: es-LAPase enzyme kinetic inhibition assay (1-leucine-β-naphthylamide substrate); type: biochemical, human; conditions: for effect on es-LAPase activity / reaction rate (FIG. 2): 167 μM Bestatin, 167 μM reduced Glutathione, 17 μM reduced thioredoxin, versus control es-LAPase; for Vmax of es-LAPase in presence of inhibitor / Km / Ki: Bestatin 167 μM, Glutathione 167 μM, Thioredoxin 17 μM; for Vmax of es-LAPase in presence of inhibitor: LAPase alone 36.8 ± 1.9; for mode of es-LAPase inhibition: from Vmax, Km and Ki analysis; for Km: LAPase alone 1.67 ± 0.14, read-out: Km of es-LAPase in presence of inhibitor; for Ki: read-out: Ki (inhibition constant)
Method: The kinetic assays were performed using a Spectronic Genesys 5 spectrophotometer from Milton Roy (Rochester, N.Y.). Absorbance was recorded every sixty seconds, over a period of 30 min. Enzyme kinetic assays were performed using 8.0×10^−2 U of es-LAPase in a final reaction volume of 600 μl and triplicate samples. […] A corresponding blank without es-LAPase was used as baseline. Both of the cuvettes were transferred to the spectrophotometer where the 1-leucine-β-naphthylmide solution was added last, marking time zero of the reaction.

[2] = test system: primary parental breast carcinoma cells; assay: LAPase release into cell supernatants following estrogen stimulation; type: cell-based, human
Method: Primary parental breast carcinoma cells were incubated with 100 nM 17-β-Estradiol for 24 hrs and cell media alone as a control. LAPase in supernatants was isolated using MAb 7B6(IgG1a)-protein-G-LAPase beads prepared by covalently cross-linking the monoclonal antibody. LAPase activity of the LAPase-immunoprecipitated supernatants was determined fluorometrically using leucine-β-naphthylamide as the substrate as described by Kuramochi et al. [Kuramochi, H. et al., (1987) J. Antibiot., 401605-1611].
During the same period, LAPase in cell supernatants of control cells remain unchanged. In addition, LAPase activity was determined in supernatants of primary parental cell lines immunoprecipitated with MAb 7B6(IgG1a)-protein-G-LAPase matrix bound antibodies. […] In addition, there was no effect of estrogen incubation on LAPase activity in purified preparations of this enzyme alone.

[3] = test system: LAPase (purified preparations obtained from Sigma); assay: LAPase activity of purified enzyme preparations incubated with 17-β-Estradiol; type: biochemical; conditions: 100 nM 17-β-Estradiol, 24 hrs
Method: Purified preparations of the enzyme obtained from Sigma were incubated with 100 nM 17-β-Estradiol for 24 hrs. LAPase activity was determined fluorometrically using leucine-β-naphthylamide as the substrate as described by Kuramochi et al. [Kuramochi, H. et al., (1987) J. Antibiot., 401605-1611].

Row | effect on es-LAPase activity / reaction rate (FIG. 2) [1] | Vmax of es-LAPase in presence of inhibitor [1] | mode of es-LAPase inhibition [1] | Km [1] [µM] | Ki [1] [nM] | Molecule | extracellular LAPase activity of estrogen stimulated cells ([2]; 100 nM, 24 hours, supernatants immunoprecipitated with MAb 7B6-protein-G matrix, control with media alone 6.4×10^−6 U/ml) | estrogen concentration of maximum release / optimal activation of LAPase ([2]; 24 hours of incubation, dose-dependent) [nM] | effect of estrogen incubation on LAPase activity in purified preparations of the enzyme alone [3]
1 | clearly inhibits es-LAPase activity | 34.0 ± 3.9 10^−6 M/min | competitive | – | – | CC(C)C[C@H](NC(=O)[C@@H](O)[C@H](N)Cc1ccccc1)C(=O)O [Bestatin] | – | – | –
2 | significant slower rates of reaction | 17.2 ± 1.5 10^−6 M/min | noncompetitive | 178 ± 25 | 1530 ± 400 | N[C@@H](CCC(=O)N[C@@H](CS)C(=O)NCC(=O)O)C(=O)O [Glutathione] | – | – | –
3 | – | – | – | – | – | C[C@]12CC[C@@H]3c4ccc(O)cc4CC[C@H]3[C@@H]1CC[C@@H]2O [estrogen, 17-β-Estradiol] | 7.7×10^−5 U/ml | 100 | no effect

Row | Molecule | effect on es-LAPase activity / reaction rate (FIG. 2) [1] | Vmax of es-LAPase in presence of inhibitor [1] | mode of es-LAPase inhibition [1] | Km [1] [µM] | Ki [1] [nM] | extracellular LAPase activity of estrogen stimulated cells ([2]; 100 nM, 24 hours, supernatants immunoprecipitated with MAb 7B6-protein-G matrix, control with media alone 6.4×10^−6 U/ml) | estrogen concentration of maximum release / optimal activation of LAPase ([2]; 24 hours of incubation, dose-dependent) [nM] | effect of estrogen incubation on LAPase activity in purified preparations of the enzyme alone [3]
4 | Thioredoxin: thiol-containing peptide; human Thioredoxin purified from CD4+T MP6 cells, compared to E. coli Thioredoxin from Sigma-Aldrich (protein, UniProt P10599 2-105, looked up) Thioredoxin: VKQIESKTAFQEALDAAGDKLVVVDFSATWCGPCKMIKPFFHSLSEKYSNVIFLEVDVDDCQDVASECEVKCMPTFQFFKKGQKVGEFSGANKEKLEATINELV | significant slower rates of reaction | 5.31 ± 0.02 10^−6 M/min | uncompetitive | 23.4 ± 0.6 | 3400 ± 580 | – | – | –
